How the values were obtained:
Format in all cases: cell-based, human
A2780 cells [1] = test: MTT assay, in vitro cytotoxicity in the dark; conditions: 0.625-100 μM in PBS
Procedure: (§1) A2780 cells (human ovarian cancer cell line) and MCF-7 cells (human breast adenocarcinoma cell line) obtained from Sigma-Aldrich and American Type Culture Collection (ATCC, Rockville, MD, USA), respectively were utilized for cell culture experiments. These cells were cultured in Dulbecco's Modified Eagle's Medium (DMEM) supplemented with 10% fetal bovine serum (FBS), penicillin (100 IU/mL) and streptomycin (100 μg/mL) at 37° C. in the presence of air (95%) and CO2 (5%).
(§2) A2780 or MCF-7 cells (2×10^5 cells/mL, 100 μL) were seeded in each well of a black 96-well plate. Stock solution of ExBox^4+⊃DPP in PBS (1 mM, 10 μL) was added to each well to achieve working concentrations and incubated for 12 h. […] Following irradiation, cells were incubated overnight and then added with MTT (5 mg/mL in PBS, 10 μL). After 4 h incubation with MTT, media from each well was pipetted out, formazan crystals deposited on the plate were dissolved in 200 μL of Me2SO, and the absorbance of each well was measured using a microplate reader at 560 nm. All the samples were analyzed in quadruplicates.
(§3) The percentage cell viability was calculated using the following formula: % cell viability=(OD of treated sample/OD of untreated sample)*100.

MCF-7 cells = test: MTT assay, in vitro cytotoxicity in the dark; conditions: 0.625-100 μM in PBS
Procedure: as §1, §2, §3

A2780 cells [2] = test: Intracellular ROS generation (DCFDA assay); conditions: 10 μM/0.156 J cm^−2 light dose, compared with dark or untreated cells
Procedure: Intracellular ROS generation assay was performed using DCFDA Cellular ROS Detection Assay Kit (Abeam), according to the manufacturer's instructions. Briefly, A2780 cells (2.5×10^5 cells/mL, 100 μL) were seeded in each well of a black 96-well plate and incubated with PBS solution of ExBox^4+⊃DPP for 12 h. After incubation, cells were washed with PBS and incubated with 2′,7′-dichlorofluorescin diacetate (DCFDA) (20 μM) for 45 min in the dark. Then the cells were rinsed with PBS, irradiated and fluorescence was measured (λex=485 and λem=535 nm) using a microplate reader. Control experiments with PBS solution of ExBox^4+⊃DPP treated cells and untreated cells, both with and without irradiation were performed.

C1=Cc2nc1cc1ccc([nH]1)c(-c1ccccc1)c1nc(cc3ccc([nH]3)c2-c2ccccc2)C=C1.c1cc2ccc1C[n+]1ccc(cc1)-c1ccc(cc1)-c1cc[n+](cc1)Cc1ccc(cc1)C[n+]1ccc(cc1)-c1ccc(cc1)-c1cc[n+](cc1)C2 [ExBox^4+⊃DPP]
cell viability in the dark (A2780 cells [1]): > 95% | cell viability in the dark (MCF-7 cells): > 95% | increase in intracellular ROS (A2780 cells [2]): 20 fold

Source: patent US12433870B2, “Supramolecular photoprotection of a photosensitizer” (Northwestern University, priority 2019, dated 2025)
